Measured values from patent US20140045873A1, “NOVEL MICROBIOCIDES” (SYNGENTA PARTICIPATIONS AG, priority 2010, published 2014).

The compounds below were run on Botryotinia fuckeliana (Botrytis cinerea) (assay: Botryotinia fuckeliana (Botrytis cinerea) / liquid culture (gray mould)). Details: Vogels broth, 24° C., 3-4 days after application, read-out: control of Botryotinia fuckeliana (inhibition of growth, photometric).
Type: cell-based
Excerpt: Botryotinia Fuckeliana (Botrytis cinerea)/Liquid Culture (Gray Mould): Conidia of the fungus from cryogenic storage were directly mixed into nutrient broth (Vogels broth). […].45
Compound CCCOc1cc(C)nc(-c2cccc(CCCO/N=C(\C)c3cc(C)cc(C)n3)n2)c1 [P.31] has an inhibition at 200 ppm of at least 80%. In the case of C#CCOc1cc(CC)nc(-c2cccc(CCCO/N=C(\C)c3cccc(C)n3)n2)c1C [P.38], the inhibition at 200 ppm is reported as at least 80%. Work on CCc1cc(Cl)c(C)c(-c2cccc(CCCO/N=C(\C)c3cccc(C)n3)n2)n1 [P.39] yielded an inhibition at 200 ppm of at least 80%. In the case of CCc1cc(SC)c(C)c(-c2cccc(CCCO/N=C(\C)c3cccc(C)n3)n2)n1 [P.40], the inhibition at 200 ppm is reported as at least 80%. CCc1cc(Br)c(C)c(-c2cccc(CCCO/N=C(\C)c3cccc(C)n3)n2)n1 [P.41] showed an inhibition at 200 ppm of at least 80%.

The compounds below were run on Glomerella lagenarium (Colletotrichum lagenarium) (assay: Glomerella lagenarium (Colletotrichum lagenarium) / liquid culture (anthracnose)). Details: Colletotrichum orbiculare; 200 ppm, liquid culture, PDB, 24° C., 3-4 days after application; read-out: control of Glomerella lagenarium (inhibition of growth, photometric).
Type: cell-based
Compound CCCOc1cc(C)nc(-c2cccc(CCCO/N=C(\C)c3cc(C)cc(C)n3)n2)c1 [P.31] has an inhibition at 200 ppm of at least 80%. C#CCOc1cc(CC)nc(-c2cccc(CCCO/N=C(\C)c3cccc(C)n3)n2)c1C [P.38] gave an inhibition at 200 ppm of at least 80%. With CCc1cc(Cl)c(C)c(-c2cccc(CCCO/N=C(\C)c3cccc(C)n3)n2)n1 [P.39] the inhibition at 200 ppm was at least 80%. In the case of CCc1cc(SC)c(C)c(-c2cccc(CCCO/N=C(\C)c3cccc(C)n3)n2)n1 [P.40], the inhibition at 200 ppm is reported as at least 80%. Compound CCc1cc(Br)c(C)c(-c2cccc(CCCO/N=C(\C)c3cccc(C)n3)n2)n1 [P.41] has an inhibition at 200 ppm of at least 80%.

These compounds were tested on Mycosphaerella arachidis (Cercospora arachidicola) (assay: Mycosphaerella arachidis (Cercospora arachidicola) / liquid culture (early leaf spot)). Details: 200 ppm, liquid culture, PDB, 24° C., 4-5 days after application, read-out: control of Mycosphaerella arachidis (inhibition of growth, photometric).
Type: cell-based
CCCOc1cc(C)nc(-c2cccc(CCCO/N=C(\C)c3cc(C)cc(C)n3)n2)c1 [P.31] showed an inhibition at 200 ppm of at least 80%. Compound C#CCOc1cc(CC)nc(-c2cccc(CCCO/N=C(\C)c3cccc(C)n3)n2)c1C [P.38] has an inhibition at 200 ppm of at least 80%. Work on CCc1cc(Cl)c(C)c(-c2cccc(CCCO/N=C(\C)c3cccc(C)n3)n2)n1 [P.39] yielded an inhibition at 200 ppm of at least 80%. CCc1cc(SC)c(C)c(-c2cccc(CCCO/N=C(\C)c3cccc(C)n3)n2)n1 [P.40] showed an inhibition at 200 ppm of at least 80%. CCc1cc(Br)c(C)c(-c2cccc(CCCO/N=C(\C)c3cccc(C)n3)n2)n1 [P.41] gave an inhibition at 200 ppm of at least 80%.

What follows are compounds tested on Mycosphaerella graminicola (Septoria tritici) (assay: Mycosphaerella graminicola (Septoria tritici) / liquid culture (Septoria blotch)). Details: Zymoseptoria tritici; 200 ppm, liquid culture, PDB, 24° C., 4-5 days after application; read-out: control of Mycosphaerella graminicola (inhibition of growth, photometric).
Type: cell-based
Work on CCCOc1cc(C)nc(-c2cccc(CCCO/N=C(\C)c3cc(C)cc(C)n3)n2)c1 [P.31] yielded an inhibition at 200 ppm of at least 80%. Work on C#CCOc1cc(CC)nc(-c2cccc(CCCO/N=C(\C)c3cccc(C)n3)n2)c1C [P.38] yielded an inhibition at 200 ppm of at least 80%. For CCc1cc(Cl)c(C)c(-c2cccc(CCCO/N=C(\C)c3cccc(C)n3)n2)n1 [P.39], the inhibition at 200 ppm was at least 80%. For CCc1cc(SC)c(C)c(-c2cccc(CCCO/N=C(\C)c3cccc(C)n3)n2)n1 [P.40], the inhibition at 200 ppm was at least 80%. With CCc1cc(Br)c(C)c(-c2cccc(CCCO/N=C(\C)c3cccc(C)n3)n2)n1 [P.41] the inhibition at 200 ppm was at least 80%.

These compounds were tested on Gaeumannomyces graminis (assay: Gaeumannomyces graminis / liquid culture (take-all of cereals)). Details: 200 ppm, liquid culture, PDB, 24° C., 4-5 days after application, read-out: control of Gaeumannomyces graminis (inhibition of growth, photometric).
Type: cell-based
CCCOc1cc(C)nc(-c2cccc(CCCO/N=C(\C)c3cc(C)cc(C)n3)n2)c1 [P.31] was tested, and the inhibition at 200 ppm was at least 80%. Work on CCc1cc(SC)c(C)c(-c2cccc(CCCO/N=C(\C)c3cccc(C)n3)n2)n1 [P.40] yielded an inhibition at 200 ppm of at least 80%.

These compounds were tested on Monographella nivalis (Microdochium nivale) (assay: Monographella nivalis (Microdochium nivale) / liquid culture (foot rot cereals)). Details: PDB, 24° C., 4-5 days after application, read-out: control of Monographella nivalis (inhibition of growth, photometric).
Type: cell-based
Compound CCCOc1cc(C)nc(-c2cccc(CCCO/N=C(\C)c3cc(C)cc(C)n3)n2)c1 [P.31] has an inhibition at 200 ppm of at least 80%. With CCc1cc(Cl)c(C)c(-c2cccc(CCCO/N=C(\C)c3cccc(C)n3)n2)n1 [P.39] the inhibition at 200 ppm was at least 80%. With CCc1cc(SC)c(C)c(-c2cccc(CCCO/N=C(\C)c3cccc(C)n3)n2)n1 [P.40] the inhibition at 200 ppm was at least 80%. CCc1cc(Br)c(C)c(-c2cccc(CCCO/N=C(\C)c3cccc(C)n3)n2)n1 [P.41] was tested, and the inhibition at 200 ppm was at least 80%.

What follows are compounds tested on Pyrenophora teres (assay: not given). Details: in Hordeum vulgare, foliar, read-out: control of Pyrenophora teres (disease control compared to untreated).
Work on CCCOc1cc(C)nc(-c2cccc(CCCO/N=C(\C)c3cc(C)cc(C)n3)n2)c1 [P.31] yielded a pest or weed control at 200 ppm of at least 80%. In the case of C#CCOc1cc(CC)nc(-c2cccc(CCCO/N=C(\C)c3cccc(C)n3)n2)c1C [P.38], the pest or weed control at 200 ppm is reported as at least 80%. In the case of CCc1cc(SC)c(C)c(-c2cccc(CCCO/N=C(\C)c3cccc(C)n3)n2)n1 [P.40], the pest or weed control at 200 ppm is reported as at least 80%.

What follows are compounds tested on Puccinia recondita f. sp. tritici (assay: not given). Details: in Triticum aestivum, foliar, read-out: control of Puccinia recondita f. sp. tritici (percent disease control compared to untreated).
With CCCOc1cc(C)nc(-c2cccc(CCCO/N=C(\C)c3cc(C)cc(C)n3)n2)c1 [P.31] the pest or weed control at 200 ppm was at least 80%. C#CCOc1cc(CC)nc(-c2cccc(CCCO/N=C(\C)c3cccc(C)n3)n2)c1C [P.38] was tested, and the pest or weed control at 200 ppm was at least 80%. CCc1cc(SC)c(C)c(-c2cccc(CCCO/N=C(\C)c3cccc(C)n3)n2)n1 [P.40] gave a pest or weed control at 200 ppm of at least 80%.

System: Puccinia recondita f. sp. tritici
Test: not given
Details: in Triticum aestivum, foliar, read-out: control of Puccinia recondita f. sp. tritici (percent disease control compared to untreated)
Remark: another data set of the same source
In the case of CCCOc1cc(C)nc(-c2cccc(CCCO/N=C(\C)c3cc(C)cc(C)n3)n2)c1 [P.31], the pest or weed control at 200 ppm is reported as at least 80%. C#CCOc1cc(CC)nc(-c2cccc(CCCO/N=C(\C)c3cccc(C)n3)n2)c1C [P.38] was tested, and the pest or weed control at 200 ppm was at least 80%. In the case of CCc1cc(SC)c(C)c(-c2cccc(CCCO/N=C(\C)c3cccc(C)n3)n2)n1 [P.40], the pest or weed control at 200 ppm is reported as at least 80%.

The compounds below were run on Thanatephorus cucumeris (Rhizoctonia solani) (assay: not given). Details: read-out: control of Thanatephorus cucumeris (inhibition of growth, photometric).
Compound CCCOc1cc(C)nc(-c2cccc(CCCO/N=C(\C)c3cc(C)cc(C)n3)n2)c1 [P.31] has an inhibition at 200 ppm of at least 80%. C#CCOc1cc(CC)nc(-c2cccc(CCCO/N=C(\C)c3cccc(C)n3)n2)c1C [P.38] showed an inhibition at 200 ppm of at least 80%. Compound CCc1cc(Cl)c(C)c(-c2cccc(CCCO/N=C(\C)c3cccc(C)n3)n2)n1 [P.39] has an inhibition at 200 ppm of at least 80%. Work on CCc1cc(SC)c(C)c(-c2cccc(CCCO/N=C(\C)c3cccc(C)n3)n2)n1 [P.40] yielded an inhibition at 200 ppm of at least 80%.

Each compound was assayed on Phaeosphaeria nodorum (Septoria nodorum) (assay: not given). Details: Parastagonospora nodorum, in Triticum aestivum, foliar, read-out: control of Phaeosphaeria nodorum (percent disease control compared to untreated).
Work on CCCOc1cc(C)nc(-c2cccc(CCCO/N=C(\C)c3cc(C)cc(C)n3)n2)c1 [P.31] yielded a pest or weed control at 200 ppm of at least 80%. C#CCOc1cc(CC)nc(-c2cccc(CCCO/N=C(\C)c3cccc(C)n3)n2)c1C [P.38] showed a pest or weed control at 200 ppm of at least 80%. CCc1cc(Cl)c(C)c(-c2cccc(CCCO/N=C(\C)c3cccc(C)n3)n2)n1 [P.39] was tested, and the pest or weed control at 200 ppm was at least 80%. Work on CCc1cc(SC)c(C)c(-c2cccc(CCCO/N=C(\C)c3cccc(C)n3)n2)n1 [P.40] yielded a pest or weed control at 200 ppm of at least 80%. CCc1cc(Br)c(C)c(-c2cccc(CCCO/N=C(\C)c3cccc(C)n3)n2)n1 [P.41] showed a pest or weed control at 200 ppm of at least 80%.
